Reference: publication PMC4076210, “Discovery of Novel AKT Inhibitors with Enhanced Anti-Tumor Effects in Combination with the MEK Inhibitor” (PLoS ONE, 2014)
Where two headings read alike, the source gives them in different places.

What was measured:
[1] = target: T1, Syk(h) (Homo sapiens, UniProt P43405); assay: Kinase panel; format: biochemical
T1 construct: purchased Millipore KinaseProfiler

[2] = target: T2, FGFR4(h) (Homo sapiens, UniProt P22455); assay: Kinase panel; format: biochemical
T2 construct: purchased Millipore KinaseProfiler
T2 sequence (P22455 22-802): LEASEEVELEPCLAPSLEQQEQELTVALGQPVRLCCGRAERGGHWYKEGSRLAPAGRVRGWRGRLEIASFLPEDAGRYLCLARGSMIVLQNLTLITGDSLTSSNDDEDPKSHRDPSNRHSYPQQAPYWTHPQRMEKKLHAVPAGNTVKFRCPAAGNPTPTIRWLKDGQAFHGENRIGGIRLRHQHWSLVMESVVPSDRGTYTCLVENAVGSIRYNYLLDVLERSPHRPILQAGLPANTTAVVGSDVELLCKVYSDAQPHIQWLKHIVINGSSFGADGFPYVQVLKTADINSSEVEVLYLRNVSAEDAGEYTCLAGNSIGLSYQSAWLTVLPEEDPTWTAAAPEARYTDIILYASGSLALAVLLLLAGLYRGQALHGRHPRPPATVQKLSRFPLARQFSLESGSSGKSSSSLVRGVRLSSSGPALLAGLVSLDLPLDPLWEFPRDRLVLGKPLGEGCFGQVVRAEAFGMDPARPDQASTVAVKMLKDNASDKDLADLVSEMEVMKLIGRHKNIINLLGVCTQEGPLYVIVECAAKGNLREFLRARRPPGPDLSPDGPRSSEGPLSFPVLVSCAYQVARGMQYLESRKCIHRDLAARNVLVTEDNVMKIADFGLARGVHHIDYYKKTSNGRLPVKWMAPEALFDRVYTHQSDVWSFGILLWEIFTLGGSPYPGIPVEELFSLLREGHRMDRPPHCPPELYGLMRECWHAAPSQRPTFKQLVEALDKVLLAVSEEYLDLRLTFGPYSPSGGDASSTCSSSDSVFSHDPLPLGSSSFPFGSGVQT

[3] = target: T3, Flt3(h) (Homo sapiens, UniProt P36888); assay: Kinase panel; format: biochemical
T3 construct: purchased Millipore KinaseProfiler
T3 sequence (P36888 27-993): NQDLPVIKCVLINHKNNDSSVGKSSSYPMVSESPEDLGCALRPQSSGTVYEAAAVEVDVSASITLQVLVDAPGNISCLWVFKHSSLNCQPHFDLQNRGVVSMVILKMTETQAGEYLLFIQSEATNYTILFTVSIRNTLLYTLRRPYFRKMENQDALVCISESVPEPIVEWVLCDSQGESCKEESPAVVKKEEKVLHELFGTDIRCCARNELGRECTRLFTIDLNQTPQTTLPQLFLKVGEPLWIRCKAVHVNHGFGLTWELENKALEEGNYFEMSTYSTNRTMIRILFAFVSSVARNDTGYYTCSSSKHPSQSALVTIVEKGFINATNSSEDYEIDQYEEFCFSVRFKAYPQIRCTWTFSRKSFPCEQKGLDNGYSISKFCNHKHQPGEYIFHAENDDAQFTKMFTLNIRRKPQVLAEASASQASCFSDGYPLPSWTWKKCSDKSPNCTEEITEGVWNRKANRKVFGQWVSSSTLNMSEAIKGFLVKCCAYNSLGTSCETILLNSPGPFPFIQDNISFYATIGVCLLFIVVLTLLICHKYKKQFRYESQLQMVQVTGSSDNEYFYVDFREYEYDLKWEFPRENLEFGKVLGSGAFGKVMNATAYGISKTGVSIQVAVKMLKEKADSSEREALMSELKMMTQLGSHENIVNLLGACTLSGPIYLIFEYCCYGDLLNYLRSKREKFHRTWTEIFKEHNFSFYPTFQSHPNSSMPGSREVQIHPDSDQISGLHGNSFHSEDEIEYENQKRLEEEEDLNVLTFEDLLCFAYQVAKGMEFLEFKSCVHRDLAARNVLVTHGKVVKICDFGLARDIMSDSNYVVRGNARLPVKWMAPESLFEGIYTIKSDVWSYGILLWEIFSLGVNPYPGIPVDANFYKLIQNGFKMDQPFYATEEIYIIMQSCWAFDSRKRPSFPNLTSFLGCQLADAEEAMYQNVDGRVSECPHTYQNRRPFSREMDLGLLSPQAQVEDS

[4] = target: T4, Tie2(h) (Homo sapiens, UniProt Q02763); assay: Kinase panel; format: biochemical
T4 construct: purchased Millipore KinaseProfiler
T4 sequence (Q02763 23-1124): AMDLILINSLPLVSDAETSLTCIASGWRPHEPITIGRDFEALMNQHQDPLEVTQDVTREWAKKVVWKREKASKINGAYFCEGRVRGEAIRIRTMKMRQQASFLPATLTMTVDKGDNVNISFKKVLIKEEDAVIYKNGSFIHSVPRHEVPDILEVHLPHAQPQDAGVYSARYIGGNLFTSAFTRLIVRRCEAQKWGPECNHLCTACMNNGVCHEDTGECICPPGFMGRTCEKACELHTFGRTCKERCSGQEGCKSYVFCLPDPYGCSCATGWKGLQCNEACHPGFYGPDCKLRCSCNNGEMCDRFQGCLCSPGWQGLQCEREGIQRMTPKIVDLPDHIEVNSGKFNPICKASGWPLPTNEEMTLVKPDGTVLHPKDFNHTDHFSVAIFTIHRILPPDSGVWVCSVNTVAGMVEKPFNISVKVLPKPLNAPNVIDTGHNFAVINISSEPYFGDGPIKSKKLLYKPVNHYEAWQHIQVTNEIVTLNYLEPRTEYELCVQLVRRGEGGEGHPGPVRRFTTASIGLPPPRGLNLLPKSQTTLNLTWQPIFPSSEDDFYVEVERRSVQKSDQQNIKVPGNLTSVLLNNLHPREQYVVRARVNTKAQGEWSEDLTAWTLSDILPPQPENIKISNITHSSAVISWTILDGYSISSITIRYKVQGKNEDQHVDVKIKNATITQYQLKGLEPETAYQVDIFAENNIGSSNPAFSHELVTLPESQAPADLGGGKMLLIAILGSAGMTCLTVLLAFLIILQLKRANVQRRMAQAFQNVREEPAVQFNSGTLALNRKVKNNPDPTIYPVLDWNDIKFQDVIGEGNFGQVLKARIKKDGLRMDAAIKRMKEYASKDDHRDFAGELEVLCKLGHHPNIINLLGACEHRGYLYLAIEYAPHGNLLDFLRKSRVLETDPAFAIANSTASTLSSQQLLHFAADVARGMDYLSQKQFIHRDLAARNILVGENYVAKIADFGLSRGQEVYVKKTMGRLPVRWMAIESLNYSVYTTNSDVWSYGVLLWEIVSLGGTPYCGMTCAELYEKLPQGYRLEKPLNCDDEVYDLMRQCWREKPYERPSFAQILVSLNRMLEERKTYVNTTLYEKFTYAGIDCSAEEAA

[5] = target: T5, MAPKAP-K3(h) (Homo sapiens, UniProt Q16644); assay: Kinase panel; format: biochemical
T5 construct: purchased Millipore KinaseProfiler
T5 sequence (Q16644 whole entry): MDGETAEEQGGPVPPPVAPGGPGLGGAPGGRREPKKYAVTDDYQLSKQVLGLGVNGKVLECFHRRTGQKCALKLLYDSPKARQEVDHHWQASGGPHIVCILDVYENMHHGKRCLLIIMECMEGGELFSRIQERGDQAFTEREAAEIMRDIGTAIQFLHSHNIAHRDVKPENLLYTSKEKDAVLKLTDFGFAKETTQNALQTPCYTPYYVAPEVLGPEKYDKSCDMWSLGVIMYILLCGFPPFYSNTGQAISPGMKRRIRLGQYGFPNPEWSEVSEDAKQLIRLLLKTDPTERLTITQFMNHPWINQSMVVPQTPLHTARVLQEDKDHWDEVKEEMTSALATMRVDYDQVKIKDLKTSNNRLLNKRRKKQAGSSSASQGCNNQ

[6] = target: T6, Ros(h) (Homo sapiens, UniProt P08922); assay: Kinase panel; format: biochemical
T6 construct: purchased Millipore KinaseProfiler

[7] = target: T7, PDGFRβ(h) (Homo sapiens, UniProt P09619); assay: Kinase panel; format: biochemical
T7 construct: purchased Millipore KinaseProfiler
T7 sequence (P09619 33-1106): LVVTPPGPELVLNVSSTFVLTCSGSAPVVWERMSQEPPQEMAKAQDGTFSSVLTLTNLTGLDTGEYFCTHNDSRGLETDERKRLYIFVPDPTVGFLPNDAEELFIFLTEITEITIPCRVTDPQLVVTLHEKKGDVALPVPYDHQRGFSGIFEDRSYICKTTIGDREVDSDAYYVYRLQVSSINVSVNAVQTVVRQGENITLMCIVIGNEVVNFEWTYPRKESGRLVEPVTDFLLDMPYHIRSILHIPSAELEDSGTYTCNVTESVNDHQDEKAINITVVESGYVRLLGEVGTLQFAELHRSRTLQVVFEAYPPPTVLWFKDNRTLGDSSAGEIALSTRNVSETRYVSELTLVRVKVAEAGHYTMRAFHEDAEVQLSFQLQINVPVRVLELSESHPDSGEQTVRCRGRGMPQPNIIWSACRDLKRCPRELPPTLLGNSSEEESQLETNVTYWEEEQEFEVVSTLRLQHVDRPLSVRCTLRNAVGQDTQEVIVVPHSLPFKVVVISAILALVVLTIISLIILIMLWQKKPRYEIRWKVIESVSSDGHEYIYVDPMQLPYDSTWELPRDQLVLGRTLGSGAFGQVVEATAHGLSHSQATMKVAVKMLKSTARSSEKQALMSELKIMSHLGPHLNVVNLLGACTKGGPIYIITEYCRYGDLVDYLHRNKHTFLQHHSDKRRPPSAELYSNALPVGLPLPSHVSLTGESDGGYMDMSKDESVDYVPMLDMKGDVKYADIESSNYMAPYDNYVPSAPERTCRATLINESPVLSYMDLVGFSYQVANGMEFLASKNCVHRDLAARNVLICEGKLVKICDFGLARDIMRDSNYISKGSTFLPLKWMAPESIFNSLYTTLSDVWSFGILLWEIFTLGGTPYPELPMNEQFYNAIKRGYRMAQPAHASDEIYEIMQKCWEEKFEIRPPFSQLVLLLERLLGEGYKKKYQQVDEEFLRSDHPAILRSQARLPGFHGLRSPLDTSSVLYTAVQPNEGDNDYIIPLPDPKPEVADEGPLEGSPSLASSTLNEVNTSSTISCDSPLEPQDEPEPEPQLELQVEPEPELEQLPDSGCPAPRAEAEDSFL

[8] = target: P70S6K (Homo sapiens, UniProt P23443); assay: Kinase IC50 assay; format: biochemical
[9] = target: T8, Arg(h) (Homo sapiens, UniProt P42684); assay: Kinase panel; format: biochemical
T8 construct: purchased Millipore KinaseProfiler
T8 sequence (P42684 whole entry): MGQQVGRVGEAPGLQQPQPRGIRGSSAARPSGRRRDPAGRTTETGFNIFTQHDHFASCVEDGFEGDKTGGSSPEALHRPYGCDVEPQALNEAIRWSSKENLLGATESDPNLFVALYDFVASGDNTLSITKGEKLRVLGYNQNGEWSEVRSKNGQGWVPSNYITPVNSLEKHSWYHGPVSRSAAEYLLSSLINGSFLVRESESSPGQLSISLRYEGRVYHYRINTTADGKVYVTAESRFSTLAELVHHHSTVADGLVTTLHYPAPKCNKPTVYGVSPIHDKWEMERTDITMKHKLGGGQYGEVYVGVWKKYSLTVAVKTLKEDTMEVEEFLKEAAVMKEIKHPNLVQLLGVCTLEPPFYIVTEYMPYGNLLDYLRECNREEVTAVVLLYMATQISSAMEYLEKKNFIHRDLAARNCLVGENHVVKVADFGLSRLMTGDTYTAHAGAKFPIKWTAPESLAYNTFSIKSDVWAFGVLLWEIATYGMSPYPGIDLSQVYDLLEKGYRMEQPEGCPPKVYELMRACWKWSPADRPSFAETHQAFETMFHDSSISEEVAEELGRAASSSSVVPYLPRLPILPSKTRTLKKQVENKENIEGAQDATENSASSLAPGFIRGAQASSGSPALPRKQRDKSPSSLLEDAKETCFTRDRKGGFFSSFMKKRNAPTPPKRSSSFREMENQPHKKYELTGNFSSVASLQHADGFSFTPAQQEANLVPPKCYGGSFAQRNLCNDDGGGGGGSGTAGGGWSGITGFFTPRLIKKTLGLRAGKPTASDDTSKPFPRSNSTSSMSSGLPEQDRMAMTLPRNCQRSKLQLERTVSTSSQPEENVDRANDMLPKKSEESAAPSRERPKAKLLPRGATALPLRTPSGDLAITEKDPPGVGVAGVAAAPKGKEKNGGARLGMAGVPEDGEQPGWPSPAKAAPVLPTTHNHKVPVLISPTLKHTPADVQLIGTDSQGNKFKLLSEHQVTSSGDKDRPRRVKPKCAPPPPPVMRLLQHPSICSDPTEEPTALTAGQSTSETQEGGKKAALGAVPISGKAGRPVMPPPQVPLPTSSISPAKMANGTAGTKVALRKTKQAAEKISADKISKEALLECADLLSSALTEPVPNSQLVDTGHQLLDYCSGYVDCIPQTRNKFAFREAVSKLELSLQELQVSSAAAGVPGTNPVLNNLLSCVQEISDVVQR

[10] = test system: AMPK(r); assay: Kinase panel; format: biochemical, rat
[11] = target: T9, MSSK1(h) (Homo sapiens, UniProt Q9UPE1); assay: Kinase panel; format: biochemical
T9 construct: purchased Millipore KinaseProfiler
T9 sequence (Q9UPE1 whole entry): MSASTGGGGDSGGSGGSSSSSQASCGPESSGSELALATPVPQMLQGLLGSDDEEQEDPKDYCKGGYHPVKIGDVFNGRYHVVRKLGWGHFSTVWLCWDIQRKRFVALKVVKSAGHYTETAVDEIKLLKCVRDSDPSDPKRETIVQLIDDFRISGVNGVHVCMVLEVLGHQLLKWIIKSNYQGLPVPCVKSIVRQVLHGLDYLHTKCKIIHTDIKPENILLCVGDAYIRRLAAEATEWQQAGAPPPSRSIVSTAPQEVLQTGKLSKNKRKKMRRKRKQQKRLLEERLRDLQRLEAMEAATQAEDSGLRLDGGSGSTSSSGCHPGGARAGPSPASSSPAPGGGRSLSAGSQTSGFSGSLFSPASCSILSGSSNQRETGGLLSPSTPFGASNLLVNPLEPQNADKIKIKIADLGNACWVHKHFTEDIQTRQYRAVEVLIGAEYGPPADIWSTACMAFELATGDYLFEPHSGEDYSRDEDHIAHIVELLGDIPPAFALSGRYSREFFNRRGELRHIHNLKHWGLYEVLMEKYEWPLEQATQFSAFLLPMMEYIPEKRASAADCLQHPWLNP

[12] = target: T10, NEK3(h) (Homo sapiens, UniProt P51956); assay: Kinase panel; format: biochemical
T10 construct: purchased Millipore KinaseProfiler
T10 sequence (P51956 1-506): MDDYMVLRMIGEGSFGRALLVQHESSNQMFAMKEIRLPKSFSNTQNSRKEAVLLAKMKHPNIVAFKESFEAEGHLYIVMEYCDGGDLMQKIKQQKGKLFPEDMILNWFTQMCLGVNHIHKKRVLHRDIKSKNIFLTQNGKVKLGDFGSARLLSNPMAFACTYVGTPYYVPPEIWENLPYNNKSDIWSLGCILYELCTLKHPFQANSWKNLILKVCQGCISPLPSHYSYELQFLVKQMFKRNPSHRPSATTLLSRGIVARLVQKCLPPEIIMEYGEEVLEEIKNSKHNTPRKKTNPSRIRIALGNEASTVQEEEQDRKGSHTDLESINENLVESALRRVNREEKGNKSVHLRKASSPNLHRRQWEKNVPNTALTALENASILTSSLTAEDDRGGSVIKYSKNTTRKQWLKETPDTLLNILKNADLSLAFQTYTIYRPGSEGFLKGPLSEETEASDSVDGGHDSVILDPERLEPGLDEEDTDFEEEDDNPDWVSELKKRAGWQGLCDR

[13] = test system: pPRAS40 in BT474; assay: phospho-PRAS40 ELISA; format: cell-based; conditions: Homo sapiens, BT-474; BT474, mean ± std dev
Experimental: (§1) ELISA plates were prepared by coating with anti-GSK3β antibody (R&D Systems), and blocked with 5% Milk/0.1% Tween-20. Cells were seeded at 25,000 cells/96-well overnight and treated with DMSO or various concentrations of drug for 1 h. Cells were lysed in 20 mM Tris-HCl (pH 8.0), 137 mM NaCl, 2 mM EDTA, 10% glycerol and 1% Triton X-100 and lysates transferred to ELISA plates and incubated overnight. The plates were washed and incubated with rabbit anti-phospho-GSK3β (Ser9) antibody (R&D Systems) for 1 h. After washing, plates were developed using HRP-linked anti-rabbit IgG, and 3,3′,5,5′-tetramethylbenzidine as substrate. Absorption was measured in a microplate spectrophotometer at 450 nm. The phospho-PRAS40 ELISA followed similar methodology as above with the exception of using a commercially available PRAS40 (pThr246) kit (Biosource) and following manufacturers' instructions for the ELISA analysis.

[14] = test system: pPRAS40 in LNCaP; assay: phospho-PRAS40 ELISA; format: cell-based; conditions: Homo sapiens, mean ± std dev
Experimental: as §1

[15] = target: T11, Fms(h) (Homo sapiens, UniProt P07333); assay: Kinase panel; format: biochemical
T11 construct: purchased Millipore KinaseProfiler

Cn1ncc(Cl)c1-c1cc(C(=O)N[C@H](CN)Cc2cccc(F)c2)sc1Cl [GSK2110183]
inhibition at 0.5 µM [1]: 3% | inhibition at 10 µM [1]: 39% | inhibition at 0.5 µM [2]: 0% | inhibition at 10 µM [2]: 19% | inhibition at 0.5 µM [3]: -8% | inhibition at 10 µM [3]: 24% | inhibition at 0.5 µM [4]: -56% | inhibition at 10 µM [4]: -10% | inhibition at 0.5 µM [5]: 4% | inhibition at 10 µM [5]: 10% | inhibition at 0.5 µM [6]: -10% | inhibition at 10 µM [6]: -10% | inhibition at 0.5 µM [7]: 2% | inhibition at 10 µM [7]: 5% | IC50 [8]: 251 nM | inhibition at 0.5 µM [9]: -3% | inhibition at 10 µM [9]: -1% | % Inhibition ([10]; 0.5 µM): 3% | % Inhibition ([10]; 10 µM): 56% | inhibition at 0.5 µM [11]: -1% | inhibition at 10 µM [11]: 12% | inhibition at 0.5 µM [12]: -14% | inhibition at 10 µM [12]: -10% | IC50 [13]: 121 ± 40 nM | IC50 [14]: 104 ± 5 nM | inhibition at 0.5 µM [15]: -1% | inhibition at 10 µM [15]: 3%

Cn1ncc(Cl)c1-c1cc(C(=O)N[C@H](CN)Cc2ccc(F)c(F)c2)oc1Cl [GSK2141795]
inhibition at 0.5 µM ([1]; 0.5 µM, read-out: % Inhibition): -18% | inhibition at 10 µM ([1]; 10 µM, read-out: % Inhibition): 35% | inhibition at 0.5 µM ([2]; 0.5 µM, read-out: % Inhibition): 24% | inhibition at 10 µM ([2]; 10 µM, read-out: % Inhibition): 19% | inhibition at 0.5 µM ([3]; 0.5 µM, read-out: % Inhibition): -12% | inhibition at 10 µM ([3]; 10 µM, read-out: % Inhibition): 22% | inhibition at 0.5 µM ([4]; 0.5 µM, read-out: % Inhibition): -6% | inhibition at 10 µM ([4]; 10 µM, read-out: % Inhibition): 9% | inhibition at 0.5 µM ([5]; 0.5 µM, read-out: % Inhibition): -8% | inhibition at 10 µM ([5]; 10 µM, read-out: % Inhibition): -2% | inhibition at 0.5 µM ([6]; 0.5 µM, read-out: % Inhibition): 0% | inhibition at 10 µM ([6]; 10 µM, read-out: % Inhibition): 5% | inhibition at 0.5 µM ([7]; 0.5 µM, read-out: % Inhibition): -7% | inhibition at 10 µM ([7]; 10 µM, read-out: % Inhibition): -4% | IC50 [8]: 50 nM | inhibition at 0.5 µM ([9]; 0.5 µM, read-out: % Inhibition): -13% | inhibition at 10 µM ([9]; 10 µM, read-out: % Inhibition): -17% | % Inhibition ([10]; 0.5 µM): 10% | % Inhibition ([10]; 10 µM): 76% | inhibition at 0.5 µM ([11]; 0.5 µM, read-out: % Inhibition): -6% | inhibition at 10 µM ([11]; 10 µM, read-out: % Inhibition): 10% | inhibition at 0.5 µM ([12]; 0.5 µM, read-out: % Inhibition): 6% | inhibition at 10 µM ([12]; 10 µM, read-out: % Inhibition): 12% | IC50 [13]: 39 ± 0.5 nM | IC50 [14]: 55 ± 2 nM | inhibition at 0.5 µM ([15]; 0.5 µM, read-out: % Inhibition): -13% | inhibition at 10 µM ([15]; 10 µM, read-out: % Inhibition): 3%
